Results taken from US20240156846A1, “COMPOSITIONS AND METHODS FOR TREATING NEURODEGENERATIVE DISORDERS” (Arizona Board of Regents on Behalf of the University of …, priority 2020, published 2024).
Entries after “also recorded” stand apart in the source; their conditions may differ.

How the values were obtained:
[1] = test system: myrosinase; conditions: cited from earlier work
[2] = test system: primary cultures of human neurons exposed to Aβ1-42 aggregates; experiment: Prevention of neuronal loss caused by Aβ1-42 aggregates (MTT assay); format: cell-based; conditions: compounds at 0 h, 24 h, 48 h; 1 μM Aβ1-42 aggregates at 24 h; MTT at 72 h
Procedure: Next, we determined whether these compounds, administered independently or formulated in combination, could protect primary cultures of human neurons against neurotoxic effects of Aβ1-42 aggregates, an in vitro condition relevant to AD pathology. We evaluated both prevention and rescue of neuronal death by NADH, NAD+ and PEITC (FIG. 7). In both experiments, the cultured human neurons were exposed to 1 nM, 10 nM, 100 nM, 1 μM, 10 μM, 20 μM, 40 μM, 50 μM, 75 μM, and 100 μM of each compound, either individually or in equimolar combinations. […] In the prevention experiment, cultures were exposed to fresh compounds every 24 h over the 48 h timeline of this experiment (i.e., 0 h, 24 h, and 48 h) to resemble a pharmacological regimen of once daily dosing. At 24 h, we added 1 μM of Aβ1-42 aggregates to the cell culture media and measured cell viability at 72 h using the MTT assay (Online Method, FIG. 7A). […] In the rescue experiments, primary cultures of human neurons were exposed to 1 μM of Aβ1-42 aggregates at 0 h for a period of 48 h to model existing cellular damage under conditions relevant to AD. After 24 h incubation with Aβ1-42, we added NADH, NAD+, PEITC, NADH/PEITC, and NAD+/PEITC directly to the culture media containing Aβ1-42 and incubated the cultured human neurons for an additional 24 h when cell viability was measured using our MTT assay.
To determine the optimal dosage of the two formulations for neuronal rescue and microglial phagocytosis stimulation, we treated the primary cultures of human neurons and primary cultures of human microglia in the prevention settings respectively with exhaustive combination of individual dosage of 10 μM, 20 μM, 40 μM, 50 μM, 75 μM, and 100 μM.

[3] = test system: primary cultures of human microglia exposed to Aβ1-42 aggregates; experiment: Aβ1-42 uptake (phagocytosis) by microglia, rescue setting; format: cell-based; conditions: 10 dosages tested
Source text: There is considerable interest in microglia-targeted therapies for AD, in part due to the phagocytotic functionality of these cells that can promote neuronal recovery and/or repair. Indeed, phagocytosis of insoluble Aβ by microglia can facilitate CNS clearance of Aβ aggregates and limit formation of amyloid plaques (Ronaldson & Davis, 2020). Indeed, Aβ can bind to receptors at the microglial cell surface, an event that can trigger release of proinflammatory cytokines such as TNF-α and IL-1β, factors that are known to cause neuronal damage (Wang et al. 2015). Additionally, Jiang and colleagues discovered that triggering receptor expressed in myeloid cells 1 (TREM1) can promote Aβ phagocytosis by microglia (Jiang et al. 2016). […] To determine if the natural compounds individually or in combination could promote phagocytosis in microglia, we designed prevention and rescue experiments to measure Aβ1-42 uptake in primary cultures of human microglia via intracellular fluorescence (Online method). […] After 24 h, we added 1 μM of Aβ1-42 aggregates to the treated media and measured cell viability at 72 h using the Aβ uptake assay (Online Method, FIG. 8A). […] Uptake of Aβ1-42 was then measured 24 h later (i.e., at the 48 h experimental time point, FIG. 8B).

[4] = test system: 3xTg AD mice; experiment: Treatment of 3xTg AD mice: brain Aβ, tau and proteomics; format: in vivo, mouse; conditions: for levels of neurotoxic Aβ42 / ratio of Aβ42 to Aβ40: 3xTg AD mice treated with individual compound; for ratio of p231-tau to total tau: 3xTg mice treated with individual compound
[5] = test system: humanized-Tau (hTau) mice; experiment: Treatment of humanized-Tau (hTau) mice: brain p231Tau; format: in vivo, mouse
[6] = human subjects, after the consumption of 100 g watercress; cited from earlier work
[7] = rat, in vivo, cited from earlier work
[8] = cited from earlier work

In the case of `O=S(=O)(O)ON=C(Cc1ccccc1)SC1OC(CO)C(O)C(O)C1F` (stereo not drawn) [2-F-2-deoxybenzylglucosinolate], the inhibition of myrosinase [1] is given as “inhibits the enzyme by trapping one of the glutamic acid residues in the active site, Glu 409”.
For `NC(=O)c1ccc[n+]([C@@H]2O[C@H](COP(=O)([O-])OP(=O)(O)OC[C@H]3O[C@@H](n4cnc5c(N)ncnc54)[C@H](O)[C@@H]3O)[C@@H](O)[C@H]2O)c1` [NAD+, oxidized nicotinamide adenine dinucleotide], the “prevention of neuronal loss as compared to the negative control condition” value [2] was “significantly prevented neuronal loss”, the “number of dosages that significantly rescued microglial phagocytosis of Aβ1-42” value [3] was “eight” and the “levels of neurotoxic Aβ42” value [4] was “significant reduction”. For the same molecule, the “ratio of Aβ42 to Aβ40” value [4] was “significantly reduced; also recorded: significant reduction” and the “ratio of p231-tau to total tau” value [4] was “significantly reduced”.
For `NC(=O)C1=CN([C@@H]2O[C@H](COP(=O)(O)OP(=O)(O)OC[C@H]3O[C@@H](n4cnc5c(N)ncnc54)[C@H](O)[C@@H]3O)[C@@H](O)[C@H]2O)C=CC1` [NADH, reduced nicotinamide adenine dinucleotide], the “prevention of neuronal loss as compared to the negative control condition” value [2] was “significantly prevented neuronal loss”, the “number of dosages that significantly rescued microglial phagocytosis of Aβ1-42” value [3] was “three” and the “levels of neurotoxic Aβ42” value [4] was “significant reduction”. For the same molecule, the “ratio of Aβ42 to Aβ40” value [4] was “significantly reduced; also recorded: significant reduction” and the “ratio of p231-tau to total tau” value [4] was “significantly reduced”.
In the case of `S=C=NCCc1ccccc1` [PEITC, phenethyl isothiocyanate], the “prevention of neuronal loss as compared to the negative control condition” value [2] was “significantly prevented neuronal loss”, the “levels of neurotoxic Aβ42” value [4] was “significant reduction” and the “ratio of Aβ42 to Aβ40” value [4] was “significantly reduced; also recorded: significant reduction”. For the same molecule, the “ratio of p231-tau to total tau” value [4] was “significantly reduced”, the “level of hyperphosphorylated Tau (p231Tau)” value [5] was “significant reduction” and the “ratio of p231Tau to Tau” value [5] was “significant reduction”. The peak plasma concentration [6] was “about 928.5±250 nM”, the bioavailability ([7]; po) was 90-114% and the clearance ([7]; po) was “low”. For the same molecule, the protein binding ([7]; po) was “high” and the “bioavailability with repeated dosing” value [7] was “Increased”.
In the case of `O=S(=O)(O)O` [Sulfate], the inhibition of myrosinase [1] is listed as “competitive inhibitor”.
In the case of `CN1C(=N)N[C@](C)(c2cc(NC(=O)c3ccc(F)cn3)ccc2F)CS1(=O)=O` [Verubecestat], the “CSF Aβ levels” value ([8]; patients with AD / early-stage AD) is listed as “decrease CSF Aβ levels”.
For `C[C@@]1(c2cc(NC(=O)c3ccc(C#N)cn3)ccc2F)C=CSC(N)=N1` [atabecestat], the “cognitive assessment scores in treated patients” value ([8]; phase two clinical trials and long-term safety and tolerability study) is listed as “trend of worsening cognitive assessment scores”.
For `CC(C)[C@H](O)C(=O)N[C@@H](C)C(=O)N[C@@H]1C(=O)N(C)CCc2ccccc21` [semagacestat], the “functional or cognitive ability in treated patients” value ([8]; phase three trial) is given as “lack of efficacy and a worsening of function and cognition”.
In the case of `OC[C@H]1O[C@@](CO)(O[C@H]2O[C@H](CO)[C@@H](O)[C@H](O)[C@H]2O)[C@@H](O)[C@@H]1O` [sucrose, reference compound], the “prevention of neuronal loss as compared to the negative control condition” value [2] was “did not prevent any neuronal death”.
